From patent publication EP0159396B1, “Carboxyalkyl peptide derivatives” (G.D. Searle & Co., priority 1984, dated 1985)

System: rat model of inflammatory arthritis
Assay: rat model of inflammatory arthritis induced by Type II collagen (Trentham et al.)
Type: in vivo
Settings: arthritic rats' paws, test compound 100 mg/kg i.p. twice daily for 21 days, prednisolone 0.625 mg/kg b.i.d.
Protocol: The therapeutic effectiveness is assessed in the rat model of inflammatory arthritis described by Trentham et al. (1977). In this model, the arthritis, induced by an intradermal injection of Type II collagen, generally develops in both hind paws and the progression and severity of the lesion are monitored by physical measurements of the malleolar width and ankle extensibility.
The compound of example II in the present specification was administered by intraperitoneal injections at 100 mg/kg twice daily for 21 days commencing seven days after the injection of the disease.
Drugs (Example 1 or prednisolone) and vehicle were administered to groups of 10 rats each. Physical measurements on the rat paws were made weekly for four weeks and consisted of (a) the distance between the medial and lateral malleolus (malleolar width) and (b) the ankle extension which was measured by applying a standard force to the rat paw and measuring the angle formed between the flexor surface of the foot and tibia. Evidence of a therapeutic effect was denoted by a significant reduction in malleolar width and […] a significant increase in ankle extension. Both measurements were carried out on apparatus designed for the purpose. Area-under-the-curve data from these time course experiments was examined by non-parametric statistical analysis. The prednisolone standard was given at a dose of 0.625 mg/kg b.i.d. Prednisolone was chosen as a standard since steroids are known to be effective both clinically in Rheumatoid Arthritis and in animal models of arthritis.

[1] = experiment number 1, area-under-the-curve of weekly measurements over four weeks

| Compound | MALLEOLAR WIDTH, […] FROM CONTROL [1] [%] | ANGLE EXTENSION, […] FROM CONTROL (experiment number 1) [%] | ANGLE EXTENSION, […] FROM CONTROL (experiment number 2) [%] | MALLEOLAR WIDTH, […] FROM CONTROL (experiment number 2) [%] | ANGLE EXTENSION, […] FROM CONTROL (experiment number 3) [%] | MALLEOLAR WIDTH, […] FROM CONTROL (experiment number 3) [%] | ANGLE EXTENSION, […] FROM CONTROL, MEAN (mean of experiments 1-3) [%] | MALLEOLAR WIDTH, […] FROM CONTROL, MEAN (mean of experiments 1-3) [%] | MALLEOLAR WIDTH, PERCENTAGE CHANGE FROM CONTROL [1] [%] | ANGLE EXTENSION, PERCENTAGE CHANGE FROM CONTROL (experiment number 1) [%] | ANGLE EXTENSION, PERCENTAGE CHANGE FROM CONTROL (experiment number 2) [%] | MALLEOLAR WIDTH, PERCENTAGE CHANGE FROM CONTROL (experiment number 2) [%] | ANGLE EXTENSION, PERCENTAGE CHANGE FROM CONTROL (experiment number 3) [%] | MALLEOLAR WIDTH, PERCENTAGE CHANGE FROM CONTROL (experiment number 3) [%] | ANGLE EXTENSION, PERCENTAGE CHANGE FROM CONTROL, MEAN (mean of experiments 1-3) [%] | MALLEOLAR WIDTH, PERCENTAGE CHANGE FROM CONTROL, MEAN (mean of experiments 1-3) [%] |
| --- | --- | --- | --- | --- | --- | --- | --- | --- | --- | --- | --- | --- | --- | --- | --- | --- |
| C[C@]12C=CC(=O)C=C1CC[C@@H]1[C@@H]2[C@@H](O)C[C@@]2(C)[C@H]1CC[C@]2(O)C(=O)CO [Prednisolone] | 98 | 100 | 96 | 96 | 95 | 97 | 97 | 97 | – | – | – | – | – | – | – | – |
| CNC(=O)[C@H](Cc1ccc(OC)cc1)NC(=O)[C@H](CC(C)C)N[C@H](CCNC(=O)OCc1ccccc1)C(=O)O [Example 1, N-[3-N-(Benzyloxycarbonyl)amino-I-(R)-carboxypropyl]-L-leucyl-O-methyl-L-tyrosine N-Methylamide] | – | – | – | – | – | – | – | – | 65 | 66 | 39 | 43 | 39 | 41 | 48 | 50 |
